Data on 3 molecules can be found in article PMC8066331, “Anticancer Activity of Triazolo-Thiadiazole Derivatives and Inhibition of AKT1 and AKT2 Activation” (Pharmaceutics, 2021).

Data set [1] has as its system UWB1.289+BRCA1. As to the kind of experiment: MTT in vitro antiproliferative assay, UWB1.289+BRCA1. The class given is cell-based, human. The conditions noted are these: UWB1.289+BRCA1, MTT; for IC50 / GI50: Homo sapiens; for IC50: 48 h, 50% cell death; for GI50 / TGI: 48 h drug exposure. An excerpt: The in vitro antiproliferative activities of the novel triazolo[3,4-b]thiadiazole derivatives were estimated in ten well-established human cancer cell lines including three ovarian (SKOV-3, UWB 1.289, and UWB 1.289+BRCA1), five colorectal adenocarcinoma (DLD-1, HT-29, LS174T, LoVo, and SW403), and two prostate cancer cell lines (PC-3 and DU-145). All cancer cell lines were obtained from the American Type Culture Collection (ATCC) and cultivated in different culture media according to the instructions. The required growth mediums were supplemented with 10% fetal bovine serum and 1% streptomycin/penicillin. All cancer cell lines were cultured as monolayers and maintained at 37 °C, 5% CO2 in humidified air.
Stock solutions of all tested compounds were prepared by dissolving the required amount of substances in the DMSO solvent to reach the desired concentration of 15 mM.
To evaluate the in vitro antiproliferative activity of the triazolo[3,4-b]thiadiazole derivatives, 3-(4,5-dimethylthiazol-2-yl)-2,5-diphenyltetrazolium bromide (MTT) assay was assessed. According to the protocol, cells were firstly seeded into a 96-well plate at a density of 8 × 10^3 cells and grown for 24 h at 37 °C, 5% CO2 in humidified air. Subsequently, cells were treated with the tested compounds in a specific range of drug concentrations (1–100 μΜ). Following 48 h of drug exposure, the culture media were discarded and replaced with 100 μL of fresh medium. Afterwards, 50 μL of dissolved MTT in phosphate-buffered saline (PBS) solution (5 mg/mL) were added in each well and cells were incubated for 3 h at 37 °C, 5% CO2 in humidified air. Incubation time was followed by MTT discard and the addition of 100 μL of DMSO solvent so that the formazan crystals could be dissolved. The absorbance of the converted dye was immediately measured at a wavelength of 540 nm on an ELISA reader (VersaMax Microplate Reader, Orleans, CA, USA).
The in vitro anticancer effect of a tested compound on cell viability was determined by three dose–response parameters termed GI50, TGI, and IC50. More specifically, the GI50 value indicates the required concentration of the compound that impels 50% cell growth inhibition, the TGI value corresponds to the concentration that induces 100% cell growth inhibition, and the IC50 value is the concentration that causes 50% cell death. The two parameters GI50 and TGI represent the cytostatic activity, whereas IC50 reflects the cytotoxic effect of a drug. To estimate the three parameters, nine absorbance measurements were required including control 24 h (Ct24), control 72 h (Ct72), and the mean of cell survival in all seven drug concentrations (Tt72). The percentage growth inhibition was calculated according to National Cancer Institute’s (NCI) protocol: [(Tt72x) − (Ct24)/(Ct72) − (Ct24)] × 100 for concentrations for which Tt72x > Ct24 and [(Tt72x) − (Ct24)/Ct24] × 100 for concentrations for which Tt72x < Ct24. GI50 was calculated from [(Tt72x) − (Ct24)/(Ct72) − (Ct24)] × 100 = 50, TGI was calculated from [(Tt72x) − (Ct24)/(Ct72) − (Ct24)] × 100 = 0, and IC50 was calculated from [(Tt72x) − (Ct24)/Ct24] × 100 = 50. All the experiments were carried out in triplicate.

The subject of data set [2] is HT-29. Further details: method as in PMID 32801761. To be noted: HT-29 cells, concentration used for Akt phosphorylation study, determined in previous studies ref 23; cited from earlier work.
A short description of data set [3]: In vivo acute toxicity. The conditions noted are these: both sexes, mouse, in vivo, ip; CB17 SCID mice, single i.p. injection, 30 days observation, estimated graphically. On the procedure:
CB17 severe combined immunodeficient (SCID) male and female mice were used for toxicity and antitumor activity studies. Mice were obtained from National Center for Scientific Research (NCSR) Demokritos, Institute of Biology, Athens, Greece. CB17 SCID mice were fed water and an irradiated standard rodent diet ad libitum and housed under specific pathogen-free conditions. For ethical reasons, the weight and tumor volumes of the animals were measured twice a week during the experiment. In case of cachexia, suffering, or increase in the tumor volume up to 2000 mm^3, the animals were sacrificed by cervical disruption.
For intraperitoneal (i.p.) treatment, stock solutions of the 3 tested compounds were prepared immediately before use. They were suspended in corn oil in the desired concentrations following initial dissolution in 10% dimethyl sulfoxide (DMSO). […] Briefly, the acute toxicity of the tested compounds was assessed for lethality in CB17 SCID mice and determined as previously described. […] Each dosage comprised a group of ten mice, including males and females, that received single i.p. injections.

Bounds are passed on as bounds.

As a reminder, the IC50 is the point on the concentration scale where inhibition reaches its midpoint. Lower therefore signals inhibition by little substance. What is called GI50 is the concentration at which growth is held to half of that of the control. A low value points to more potent growth inhibition. One may read the LD50 as the dose at which mortality reaches 50%. Turning to `COc1cc(Cc2nnc3sc(C=Cc4ccc(F)cc4)nn23)c(S(=O)(=O)N(C)C)cc1OC` [KA25], in data set [1], the IC50 stood at 38 ± 1.1 µM, the GI50 amounted to 4 ± 0.5 µM and the TGI worked out at 13 ± 0.8 μΜ. In data set [2], the TGI concentration was 120 μΜ. Besides, in data set [3], the LD50 at 30 days was 360 mg/kg.

As for `COc1cc(Cc2nnc3sc(-c4cc([N+](=O)[O-])ccc4[N+](=O)[O-])nn23)c(S(=O)(=O)N(C)C)cc1OC` [KA39], in data set [1], the IC50 was determined as 94 ± 2.3 µM, the GI50 amounted to 6 ± 0.5 µM and the TGI was found to be 11 ± 0.7 μΜ. For the same molecule, in data set [2], the TGI concentration is given as 15.9 μΜ. For the same molecule, the 50% lethal dose (LD50) at 30 days in data set [3] was 100 mg/kg.

In the case of `COc1cc(Cc2nnc3sc(C=Cc4ccc(Cl)cc4)nn23)c(S(=O)(=O)N(C)C)cc1OC` [KA26], in data set [1], the IC50 was over 100 µM, the GI50 came out at 42 ± 0.5 µM and the TGI turned out to be 65 ± 0.7 μΜ. For the same molecule, in data set [3], the 50% lethal dose (LD50) at 30 days is 160 mg/kg.
